Like-named read-outs stand apart in the source and are kept apart here.
Molecular target: T1, Y2 receptors (Homo sapiens, UniProt P49146)
T1 construct: KAN-Ts endogenously expressing Y2 receptors; endogenous in cells; host or cells: KAN-Ts cells (membrane preparation)
T1 sequence (P49146 1-381): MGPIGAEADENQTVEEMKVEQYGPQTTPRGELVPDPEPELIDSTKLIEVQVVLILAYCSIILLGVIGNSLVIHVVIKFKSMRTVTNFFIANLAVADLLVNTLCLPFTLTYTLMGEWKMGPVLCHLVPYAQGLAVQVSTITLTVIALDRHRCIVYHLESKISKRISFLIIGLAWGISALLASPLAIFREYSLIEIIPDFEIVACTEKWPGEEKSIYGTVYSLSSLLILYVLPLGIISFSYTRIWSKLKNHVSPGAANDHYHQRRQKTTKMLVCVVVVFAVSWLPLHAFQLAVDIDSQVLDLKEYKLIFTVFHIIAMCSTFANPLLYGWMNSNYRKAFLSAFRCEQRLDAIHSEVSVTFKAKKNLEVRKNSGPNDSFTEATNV
Experiment: Radioligand binding assay, [125I]PYY, KAN-Ts membranes
Procedure: Radioligand Binding Assay
KAN-Ts endogenously expressing Y2 receptors were used for the radioligand binding assay. Cells were grown to confluence on 150 cm^2 tissue culture plates, washed with phosphate-buffered saline (PBS), and scraped into 50 mL tubes. After centrifugation, the supernatant was aspirated, and the pellets frozen and stored at −80° C. Thawed pellets were homogenized with a polytron tissue grinder for 15 sec in 20 mM Tris-HCl, 5 mM EDTA. The homogenate was centrifuged at 800×g for 5 min and the collected supernatant was recentrifuged at 25000×g for 25 min. The resulting pellet was resuspended in binding buffer (20 mM HEPES, 120 mM NaCl, 0.22 mM KH2PO4, 1.3 mM CaCl2, 0.8 mM MgSO4). Membranes were incubated with [^125I]PYY (80 pM) in the presence or absence of test compound for 1 h at rt. The reaction was stopped by filtration through GF/C filter plates pre-soaked in 0.3% polyethylenimine and subsequently washed with Tris 50 mM, 5 mM EDTA buffer. Plates were dried for 1 h in a 55° C. oven, scintillation fluid was added and the radioactivity was counted in a Packard TopCount. Specific binding to the NPY receptor subtypes was determined by radioactivity that was bound in the presence of […] NPY. Each binding experiment was repeated three to eight times, each in duplicate. IC50 values (i.e. concentration of unlabelled peptide or antagonist required to compete for 50% of specific binding to the radioligand) were calculated using the GraphPad Prism software (GraphPad Software Inc., San Diego Calif.) with a fit to a sigmoidal dose response curve. Data were expressed as pIC50 values where pIC50=−log IC50.

[1] = membranes of KAN-Ts cells endogenously expressing Y2 receptors, [125I]PYY (80 pM), 1 h at rt

SMILES | IC50 | IC50 [1]
CC(=O)N1CCc2ccc(N(C(=O)/C=C/c3ccccc3)C3CCN(C(=O)c4ccccc4)CC3)cc21 [Example 39, trans-N-(1-Acetyl-2,3-dihydro-1H-indol-6-yl)-N-(1-benzoyl-piperidin-4-yl)-3-phenyl-acrylamide] | 29 µM | –
CC(=O)N1CCc2ccc(N(C(=O)/C=C/c3ccccc3)C3CCCN(Cc4ccccc4)C3)cc21 (stereo not drawn) [Example 45, trans-N-(1-Acetyl-2,3-dihydro-1H-indol-6-yl)-N-(1-benzyl-piperidin-3-yl)-3-phenyl-acrylamide] | – | 16 µM
CC(=O)N1CCc2ccc(N(C(=O)/C=C/c3ccccc3)C3CCN(Cc4ccccc4)C3)cc21 (stereo not drawn) [Example 46, trans-N-(1-Acetyl-2,3-dihydro-1H-indol-6-yl)-N-(1-benzyl-pyrrolidin-3-yl)-3-phenyl-acrylamide] | – | 18 µM
CC(=O)N1CCc2ccc(N(CCCNCc3ccccc3)C(=O)/C=C/c3ccccc3)cc21 [Example 47, trans-N-(1-Acetyl-2,3-dihydro-1H-indol-6-yl)-N-(3-benzylamino-propyl)-3-phenyl-acrylamide] | – | 12 µM
C=CCN(CCCN(C(=O)/C=C/c1ccccc1)c1ccc2c(c1)N(C(C)=O)CC2)Cc1ccccc1 [Example 48, trans-N-(1-Acetyl-2,3-dihydro-1H-indol-6-yl)-N-[3-(allyl-benzyl-amino)-propyl]-3-phenyl-acrylamide] | – | 12 µM

Source: US7317025B2, “Non-peptidic NPY Y2 receptor inhibitors” (Johnson & Johnson Pharmaceutical Research & Development, LLC, priority 2003, dated 2008)
